Test system: Achromobacter xylosoxidans SadB (SadB), SEQ ID NO: 26
Test: isobutyraldehyde reduction kinetics (A340, initial rates)
Format: biochemical
Settings: read-out: KM (NADH); cofactor
Description: This example describes preparation of ADH-gene constructs for over-expression/purification and measurement of enzyme activities using a time-course assay. Horse-liver ADH (HLADH; A-6128) was purchased from Sigma. Achromobacter xylosoxidans SadB (SadB), Saccharomyces cerevisiae ADH6 (ScADH6) and ADH7 (ScADH7), Entamoeba histolytica ADH1 (EhADH1), Bos Taurus Aldehyde Reductase (BtARD), Beijerinckia indica subsp. Indica ATCC 9039 (BiADH), Clostridium beijerinckii ADH (CbADH), Rana perezi ADH8 (RpADH8), Rattus norvegicus ADH1 (RnADH1), Thermus sp. ATN1 ADH (TADH), Phenylobacterium zucineum HLK1 ADH (PzADH), Methylocella silvestris BL2 ADH (MsADH), Acinetobacter baumannii AYE ADH (AbADH), Geobacillus sp. WCH70 ADH (GbADH), Vanderwaltozyma polyspora DSM 70294 ADH (VpADH), Mucor circinelloides ADH (McADH), and Rhodococcus erythropolis PR4ADH (ReADH) were the candidates for which subclones were prepared for protein expression and purification.
As a routine practice, the crude extracts and purified proteins were assayed for butanol oxidation activity, in order to ensure that the recombinant proteins were active throughout the purification process. […] Alcohol oxidation activities were carried out in 50 mM sodium phosphate buffer at pH 8.8 and aldehyde reduction reactions were assayed in 190 mM potassium phosphate buffer at pH 7.0. Depending on the nature of reaction being carried out, the enzyme and cofactor stocks were diluted in the reaction buffers at the respective pHs. Either buffer or cell extract prepared from the proprietary E. coli strain (with no ADH plasmid) was used as the negative control for assays with purified protein and cell-free extracts, respectively.
Kinetic constants of the ADH enzymes were calculated and compared to identify those candidate ADH enzymes with the most desirable properties for the conversion of isobutyraldehyde to isobutanol in the last step of the engineered pathway for isobutanol production. The assays for determining the kinetic constants were carried out using initial rates from the assays described above. […] The concentration of a given enzyme was such that it was conducive for the measurement of initial velocities over a 1-min time course. For each enzyme, Michaelis-Menten plots were generated with a broad range of substrate concentrations. Rough estimates of KM were obtained, based on which the assays were redesigned so as to use substrate concentrations in the range 0.5 to 10 times the KM value, to be able to obtain the appropriate kinetic constants. […] Reactions with isobutanol substrate were performed at 30° C. in 50 mM Sodium phosphate buffer, pH 8.8, containing 7.5 mM NAD. The Enzyme kinetics module (Version 1.3) of SigmaPlot 11 (Systat Software, Inc.) was used to fit data to Michaelis-Menten equations and calculate the kinetic constants. The kcat/KM is derived from the individual numbers of kcat and KM and not an experimentally determined value.
For those enzymes marked with an asterisk in Table 7, at least 3 assays were performed with separate preparations of the enzyme. All other numbers are values from either one assay or are averages from 2 assays performed with the same enzyme sample.

NC(=O)C1=CN([C@@H]2O[C@H](COP(=O)(O)OP(=O)(O)OC[C@H]3O[C@@H](n4cnc5c(N)ncnc54)[C@H](O)[C@@H]3O)[C@@H](O)[C@H]2O)C=CC1 [NADH, reduced nicotinamide adenine dinucleotide]
Km: 20 µM

Reference: patent US8765433B2, “Alcohol dehydrogenases (ADH) useful for fermentive production of lower alkyl alcohols” (priority 2009, dated 2014)
